Data: ChEMBL document CHEMBL3616438, “Molecular modeling studies and synthesis of novel quinoxaline derivatives with potential anticancer activity as inhibitors of c-Met kinase” (Bioorg Med Chem, 2015)
≈ marks a conversion by molar mass, not a printed value.

Tests used:
Assay type in all cases: functional, cell-based
[1] = system: NCI-H460; experiment: Cytotoxicity against human NCI-H460 cells assessed as inhibition of cell viability after 72 hrs by SRB assay
[2] = system: SF-268; experiment: Cytotoxicity against human SF268 cells assessed as inhibition of cell viability after 72 hrs by SRB assay
[3] = system: MCF7; experiment: Cytotoxicity against human MCF7 cells assessed as inhibition of cell viability after 72 hrs by SRB assay

For `O=c1[nH]c2ccc(Br)cc2nc1/C=C/c1ccc(O)cc1`, the IC50 [1] was 0.02281 µg/mL (≈ 0.0665 µM), the IC50 [2] was 0.02283 µg/mL (≈ 0.0665 µM) and the IC50 [3] was 0.02281 µg/mL (≈ 0.0665 µM).

For `Cc1nc2cc(Br)ccc2nc1N1CCCCC1`, the IC50 [1] was 0.04032 µg/mL (≈ 0.132 µM), the IC50 [2] was 0.03044 µg/mL (≈ 0.0994 µM) and the IC50 [3] was 0.03361 µg/mL (≈ 0.11 µM).

`Cc1nc2cc(Br)ccc2nc1Oc1ccc(/N=C\c2ccc(Cl)cc2)cc1` was tested, and the IC50 [1] was 0.08 µg/mL (≈ 0.177 µM), the IC50 [2] was 0.02 µg/mL (≈ 0.0442 µM) and the IC50 [3] was 0.08 µg/mL (≈ 0.177 µM).

`CCOC(=O)Cn1c(=O)c(C)nc2cc(Br)ccc21` was tested, and the IC50 [1] was 0.01042 µg/mL (≈ 0.032 µM), the IC50 [2] was 0.00863 µg/mL (≈ 0.0265 µM) and the IC50 [3] was 0.0224 µg/mL (≈ 0.0689 µM).

For `Cc1nc2cc(Br)ccc2nc1Oc1ccccc1N`, the IC50 [1] was 0.03 µg/mL (≈ 0.0909 µM), the IC50 [2] was 0.06 µg/mL (≈ 0.182 µM) and the IC50 [3] was 0.02 µg/mL (≈ 0.0606 µM).

In the case of `Cc1nc2cc(Br)ccc2nc1Nc1ccc(S(=O)(=O)N2CCCCC2)cc1`, the IC50 [1] is reported as 0.67 µg/mL (≈ 1.45 µM), the IC50 [2] is reported as 0.0018 µg/mL (≈ 0.0039 µM) and the IC50 [3] is reported as 0.00162 µg/mL (≈ 0.00351 µM).

Compound `COc1ccc(/C=C/c2nc3cc(Br)ccc3[nH]c2=O)cc1` has an IC50 [1] of 0.06 µg/mL (≈ 0.168 µM), an IC50 [2] of 0.2 µg/mL (≈ 0.56 µM) and an IC50 [3] of 0.06 µg/mL (≈ 0.168 µM).

Work on `Cc1nc2cc(Br)ccc2n2nnnc12` yielded an IC50 [1] of 0.0208 µg/mL (≈ 0.0788 µM), an IC50 [2] of 0.0203 µg/mL (≈ 0.0769 µM) and an IC50 [3] of 0.03309 µg/mL (≈ 0.125 µM).

Work on `Cc1nc2cc(Br)ccc2nc1Oc1ccc(C=O)cc1` yielded an IC50 [1] of 0.02845 µg/mL (≈ 0.0829 µM), an IC50 [2] of 0.0405 µg/mL (≈ 0.118 µM) and an IC50 [3] of 0.03278 µg/mL (≈ 0.0955 µM).

Work on `COc1cccc2c1C(=O)c1c(O)c3c(c(O)c1C2=O)C[C@@](O)(C(=O)CO)C[C@@H]3O[C@H]1C[C@H](N)[C@H](O)[C@H](C)O1` [DOXORUBICIN] yielded an IC50 [1] of 0.09 µg/mL (≈ 0.166 µM), an IC50 [2] of 0.09 µg/mL (≈ 0.166 µM) and an IC50 [3] of 0.04 µg/mL (≈ 0.0736 µM).

For `Cc1nc2cc(Br)ccc2nc1Oc1ccc(N)cc1`, the IC50 [1] was 0.52 µg/mL (≈ 1.57 µM), the IC50 [2] was 0.08 µg/mL (≈ 0.242 µM) and the IC50 [3] was 0.81 µg/mL (≈ 2.45 µM).

`O=c1[nH]c2ccc(Br)cc2nc1/C=C/c1ccc(Br)cc1` showed an IC50 [1] of 0.03632 µg/mL (≈ 0.0894 µM), an IC50 [2] of 0.04066 µg/mL (≈ 0.1 µM) and an IC50 [3] of 0.03223 µg/mL (≈ 0.0794 µM).

In the case of `Cc1nc2cc(Br)ccc2nc1NN`, the IC50 [1] is reported as 0.02062 µg/mL (≈ 0.0815 µM), the IC50 [2] is reported as 0.01682 µg/mL (≈ 0.0665 µM) and the IC50 [3] is reported as 0.02427 µg/mL (≈ 0.0959 µM).

Compound `Cc1nc2cc(Br)ccc2nc1Oc1ccc(/C=N\c2ccc(Cl)cc2)cc1` has an IC50 [1] of 0.01866 µg/mL (≈ 0.0412 µM), an IC50 [2] of 0.03043 µg/mL (≈ 0.0672 µM) and an IC50 [3] of 0.01263 µg/mL (≈ 0.0279 µM).

In the case of `Cc1ccc(/C=C/c2nc3cc(Br)ccc3[nH]c2=O)cc1`, the IC50 [1] is reported as 0.00812 µg/mL (≈ 0.0238 µM), the IC50 [2] is reported as 0.0168 µg/mL (≈ 0.0492 µM) and the IC50 [3] is reported as 0.02221 µg/mL (≈ 0.0651 µM).

`Cc1nc2cc(Br)ccc2nc1Sc1ccccc1` was tested, and the IC50 [1] was 0.01842 µg/mL (≈ 0.0556 µM), the IC50 [2] was 0.01816 µg/mL (≈ 0.0548 µM) and the IC50 [3] was 0.01222 µg/mL (≈ 0.0369 µM).

`Cc1nc2cc(Br)ccc2n(CC(=O)NN)c1=O` showed an IC50 [1] of 0.02 µg/mL (≈ 0.0643 µM), an IC50 [2] of 0.06 µg/mL (≈ 0.193 µM) and an IC50 [3] of 0.01 µg/mL (≈ 0.0321 µM).

For `Cc1cc(C)n(-c2nc3ccc(Br)cc3nc2C)n1`, the IC50 [1] was 0.0346 µg/mL (≈ 0.109 µM), the IC50 [2] was 0.04541 µg/mL (≈ 0.143 µM) and the IC50 [3] was 0.02355 µg/mL (≈ 0.0742 µM).
